# According to patent US20180256541A1, “COMPOSITIONS HAVING ANTI-FUGETACTIC PROPERTIES FOR TREATMENT OF CANCER” (THE GENERAL HOSPITAL CORPORATION DBA MASSACHUSETTS GENERAL …, priority 2015, published 2018):
# Tests used:
# human CD3+ T cells [1] = conditions: T cells pre-incubated with 0.01 μM to 10 mM AMD3100; tumor cells in Transwell; harvest after 3 h
# Procedure: For quantitative transmigration assays, purified human CD3^+ T cells (approximately 2×10^4 cells) are added to the upper chamber of a Transwell® insert in each well, to a total volume of 150 μl of Iscove's modified medium.
# To determine the anti-fugetactic concentration of AMD3100, the T cells are incubated with 0.01 μM to 10 mM AMD3100 prior to addition to the chamber.
# Cells are harvested from the lower chamber after 3 h, and cell counts are performed using a hemocytometer.
# human CD3+ T cells [2] = conditions: CI of 1.0 is the control, triplicate wells
# Procedure: Freshly prepared and purified human CD3^+ T cells were prepared from healthy donor peripheral blood. 20,000 T cells were loaded into the upper chamber of the Transwell in control, chemotactic or fugetactic settings with AMD3100 at concentrations between 0.1 μM and 10 μM. Migrated cells were counted in the lower chamber and migration quantitated as previously described. Vianello et al. The Journal of Immunology, 2006, 176: 2902-2914; Righi et al., Cancer Res.; 71(16); 5522-34, each of which is incorporated herein in its entirety.
# We saw clear evidence of binary or bimodal chemotactic (FIG. 1; CI 2.3 at 1 μM) and fugetactic (FIG. 2; CI=1.6 at 0.1 μM) responses of human CD3+ T cells to AMD3100 (where a CI or chemotactic index of 1.0 is the control). All wells were run in triplicate.
smiles,measurement,setting,value
"c1cc(CN2CCCNCCNCCCNCC2)ccc1CN1CCCNCCNCCCNCC1 [AMD3100, 1,1′-[1,4-phenylenebis(methylene)]bis [1,4,8,11-tetraazacyclotetradecane]]","effect on T cell migration (anti-fugetactic at lower, fugetactic at higher concentrations)",human CD3+ T cells [1],bimodal effect
same,"CI (chemotactic index), chemotactic response","human CD3+ T cells [2]; chemotactic setting, AMD3100 at 1 μM, FIG. 1",2.3
same,"CI (chemotactic index), fugetactic response","human CD3+ T cells [2]; fugetactic setting, AMD3100 at 0.1 μM, FIG. 2",1.6
